Data on 17 compounds can be found in patent US9751869B2, “LXR modulators” (BRISTOL-MYERS SQUIBB COMPANY, priority 2013, dated 2017).

The assay addresses T1, LXRβ (Homo sapiens, UniProt P55055).
T1 construct: Co-transfection expression plasmids, comprising full-length LXRα (pCMX-h LXRα or LXRβ (pCMX-hLXRβ)); expressed in transfected cells; host or cells: CV-1 African green monkey kidney cells, transient transfection with pCMX-hLXRβ
T1 sequence (P55055 1-460): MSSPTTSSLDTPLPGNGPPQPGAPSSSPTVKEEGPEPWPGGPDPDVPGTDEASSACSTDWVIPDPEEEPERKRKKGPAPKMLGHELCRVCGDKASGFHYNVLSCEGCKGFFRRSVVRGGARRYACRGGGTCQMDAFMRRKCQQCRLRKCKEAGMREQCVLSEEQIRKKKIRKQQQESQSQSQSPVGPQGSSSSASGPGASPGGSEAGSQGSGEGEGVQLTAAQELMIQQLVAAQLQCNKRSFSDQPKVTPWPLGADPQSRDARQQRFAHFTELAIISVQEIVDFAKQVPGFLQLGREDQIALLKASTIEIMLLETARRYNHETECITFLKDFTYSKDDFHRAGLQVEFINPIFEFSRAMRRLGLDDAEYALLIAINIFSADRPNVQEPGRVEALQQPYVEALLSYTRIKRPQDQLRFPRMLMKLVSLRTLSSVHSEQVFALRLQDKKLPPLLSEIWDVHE
T1 sequence (P19793 1-462 partner): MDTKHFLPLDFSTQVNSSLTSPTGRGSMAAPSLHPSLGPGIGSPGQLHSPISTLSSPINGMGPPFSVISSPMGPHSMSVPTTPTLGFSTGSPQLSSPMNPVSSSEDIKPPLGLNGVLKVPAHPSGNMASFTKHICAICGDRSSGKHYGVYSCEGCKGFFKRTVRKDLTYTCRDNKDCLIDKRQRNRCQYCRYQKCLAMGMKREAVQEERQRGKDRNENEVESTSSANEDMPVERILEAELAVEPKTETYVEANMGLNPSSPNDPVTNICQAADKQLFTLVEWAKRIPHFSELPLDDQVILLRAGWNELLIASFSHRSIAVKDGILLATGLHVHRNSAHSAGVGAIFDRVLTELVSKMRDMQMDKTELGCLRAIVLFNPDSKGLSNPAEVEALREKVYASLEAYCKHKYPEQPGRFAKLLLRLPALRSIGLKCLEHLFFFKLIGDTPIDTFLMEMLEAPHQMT
Put plainly: LXR/LXRE co-transfection assay (luciferase reporter) in CV-1 cells, LXRβ. As to conditions: for EC50: CV-1 cells transfected with pCMX-hLXRβ and LXREx1-Tk-Luciferase, 20 hours incubation, read-out: LXRbeta agonism EC50; for Emax: read-out: LXRbeta % EFFICACY
Type of assay: cell-based. Summed up:
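Luciferase read-out after 20 h compound treatment at 37 °C of CV-1 cells carrying transfected hLXRβ plus one-copy LXRE reporter, endogenous RXR partnering. Sigmoidal fit of 10-point half-log curves (4 wells each) gave EC50; % efficacy versus maximal response of the propionamide reference agonist.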

Where [1] appears, read: CV-1 cells, relative to maximum response of high control N-(3-((4-fluorophenyl)-(naphthalene-2-sulfonyl)amino)propyl)-2,2-dimethylpropionamide.

Usually EC50 stands for the midpoint of the concentration-response curve. On to `Cc1nc(-c2ccc3c(c2)OC(F)(F)O3)c(-c2cc(-c3cc(F)c(CO)c(S(C)(=O)=O)c3)ccc2-c2cc(CC#N)nn2C)o1` [Example 58, 2-(5-(3-(4-(2,2-difluorobenzo[d][1,3]dioxol-5-yl)-2-methyloxazol-5-yl)-3′-fluoro-4′-(hydroxymethyl)-5′-(methylsulfonyl)-[1,1′-biphenyl]-4-yl)-1-methyl-1H-pyrazol-3-yl)acetonitrile], for which the half-maximal effective concentration (EC50) came to 18 nM. The Emax under setting [1] is 94%.
Consider `Cn1nc(C(F)(F)CO)cc1-c1ccc(-c2cccc(S(C)(=O)=O)c2)cc1-n1nncc1-c1ccc2c(c1)OC(F)(F)O2` [Example 35, 2-(5-(3-(5-(2,2-difluorobenzo[d][1,3]dioxol-5-yl)-1H-1,2,3-triazol-1-yl)-3′-(methylsulfonyl)-[1,1′-biphenyl]-4-yl)-1-methyl-1H-pyrazol-3-yl)-2,2-difluoroethanol], for which the 50% effective concentration (EC50) came out at 2230 nM. Besides, the Emax under setting [1] turned out to be 87%.
Take `Cc1nc(-c2cc(-c3cc(F)c(CO)c(S(C)(=O)=O)c3)ccc2-n2ccc(C(F)(F)F)n2)c(-c2ccc(OC(F)F)nc2)o1` [Example 395, (3′-(5-(6-(difluoromethoxy)pyridin-3-yl)-2-methyloxazol-4-yl)-3-fluoro-5-(methylsulfonyl)-4′-(3-(trifluoromethyl)-1H-pyrazol-1-yl)biphenyl-4-yl)methanol]: the EC50 was determined as 11 nM. In addition, the Emax under setting [1] worked out at 83%.
In the same order, the values of `Cc1nc(-c2cc(-c3cccc(C4(C(N)=O)CC4)c3)ccc2-n2nc(C(F)(F)F)cc2Cl)c(-c2ccc(OC(F)(F)F)cc2)o1` [Example 418, 1-(4′-(5-chloro-3-(trifluoromethyl)-1H-pyrazol-1-yl)-3′-(2-methyl-5-(4-(trifluoromethoxy)phenyl)oxazol-4-yl)-[1,1′-biphenyl]-3-yl) cyclopropanecarboxamide] are 728 nM and 74%.
Take `Cc1nc(-c2ccc3c(c2)OC(F)(F)O3)c(-c2cc(-c3cc(F)c(CO)c(S(C)(=O)=O)c3)ccc2-c2cc(C(F)(F)CO)nn2C)o1` [Example 105, 2-(5-(3-(4-(2,2-difluorobenzo[d][1,3]dioxol-5-yl)-2-methyloxazol-5-yl)-3′-fluoro-4′-(hydroxymethyl)-5′-(methylsulfonyl)-[1,1′-biphenyl]-4-yl)-1-methyl-1H-pyrazol-3-yl)-2,2-difluoroethanol]: the EC50 stood at 74 nM. The Emax under setting [1] was 66%.
Turning to `Cc1nc(-c2ccc3c(c2)OC(F)(F)O3)c(-c2cc(-c3cc(F)c(CO)c(S(C)(=O)=O)c3)ccc2-n2ccc(C(F)(F)F)n2)o1` [Example 349, (3′-(4-(2,2-difluorobenzo[d][1,3]dioxol-5-yl)-2-methyloxazol-5-yl)-3-fluoro-5-(methylsulfonyl)-4′-(3-(trifluoromethyl)-1H-pyrazol-1-yl)biphenyl-4-yl)methanol], the EC50 was 8 nM. Further, the Emax under setting [1] was found to be 72%.
In the case of `Cc1nc(-c2ccc3c(c2)OC(F)(F)O3)c(-c2cc(-c3cccc(S(C)(=O)=O)c3)ccc2-n2cc(Cl)c(C(F)(F)F)n2)o1` [Example 419, 5-(4-(4-chloro-3-(trifluoromethyl)-1H-pyrazol-1-yl)-3′-(methylsulfonyl)-[1,1′-biphenyl]-3-yl)-4-(2,2-difluorobenzo[d][1,3]dioxol-5-yl)-2-methyloxazole], the EC50 stood at 4 nM. Moreover, under setting [1], the Emax was 71%.
On to `Cc1nc(-c2ccc3c(c2)OC(F)(F)O3)c(-c2cc(-c3cc(F)c(CO)c(S(C)(=O)=O)c3)ccc2-c2cc(C(F)(F)C(=O)NC(C)C)nn2C)o1` [Example 82, 2-(5-(3-(4-(2,2-difluorobenzo[d][1,3]dioxol-5-yl)-2-methyloxazol-5-yl)-3′-fluoro-4′-(hydroxymethyl)-5′-(methylsulfonyl)biphenyl-4-yl)-1-methyl-1H-pyrazol-3-yl)-2,2-difluoro-N-isopropylacetamide], for which the EC50 was 59 nM. In addition, the Emax under setting [1] came out at 33%.
As for `Cc1nc(-c2ccc3c(c2)OC(F)(F)O3)c(-c2cc(-c3cccc(S(C)(=O)=O)c3)ccc2-c2cc(C(=O)NC3CC3)nn2C)o1` [Example 107, N-cyclopropyl-5-(3-(4-(2,2-difluorobenzo[d][1,3]dioxol-5-yl)-2-methyloxazol-5-yl)-3′-(methylsulfonyl)-[1,1′-biphenyl]-4-yl)-1-methyl-1H-pyrazole-3-carboxamide], the EC50 amounted to 1250 nM. The Emax under setting [1] is 37%.
In the same order, the values of `Cc1nc(-c2ccc3c(c2)OC(F)(F)O3)c(-c2cc(-c3cccc(S(C)(=O)=O)c3)ccc2-c2cc(C(C)(F)F)nn2C)o1` [Example 94, 4-(2,2-difluorobenzo[d][1,3]dioxol-5-yl)-5-(4-(3-(1,1-difluoroethyl)-1-methyl-1H-pyrazol-5-yl)-3′-(methylsulfonyl)biphenyl-3-yl)-2-methyloxazole] are 32 nM and 87%.
As for `Cc1nc(-c2ccc3c(c2)OC(F)(F)O3)c(-c2cc(-c3cc(F)c(CO)c(S(C)(=O)=O)c3)ccc2-c2cc(C(C)O)nn2C)o1` (stereo not shown) [Example 104, 1-(5-(3-(4-(2,2-difluorobenzo[d][1,3]dioxol-5-yl)-2-methyloxazol-5-yl)-3′-fluoro-4′-(hydroxymethyl)-5′-(methylsulfonyl)-[1,1′-biphenyl]-4-yl)-1-methyl-1H-pyrazol-3-yl)ethanol], the concentration giving a half-maximal response (EC50) came to 54 nM. Also, the “LXRbeta % EFFICACY” value under setting [1] came out at 56%.
With `Cn1nc(C(F)F)cc1-c1ccc(-c2cc(F)c(CO)c(S(C)(=O)=O)c2)cc1-n1nncc1-c1ccc(OC(F)(F)F)cc1` [Example 23, {4′-[3-(difluoromethyl)-1-methyl-1H-pyrazol-5-yl]-3-fluoro-5-(methylsulfonyl)-3′-(5-{4-[(trifluoromethyl)oxy]phenyl}-1H-1,2,3-triazol-1-yl)biphenyl-4-yl}methanol], the EC50 came out at 42 nM. Besides, the Emax under setting [1] was determined as 79%.
The like results for `Cc1nc(-c2ccc(OC(F)(F)F)cc2)c(-c2cc(-c3cccc(S(C)(=O)=O)c3)ccc2-c2cc(C(F)(F)F)nn2C)o1` [Example 53, 2-methyl-5-(4-(1-methyl-3-(trifluoromethyl)-1H-pyrazol-5-yl)-3′-(methylsulfonyl)biphenyl-3-yl)-4-(4-(trifluoromethoxy)phenyl)Oxazole] were, in that order, 46 nM and 94%.
The like results for `Cc1nc(-c2ccc3c(c2)OC(F)(F)O3)c(-c2cc(-c3cccc(S(C)(=O)=O)c3)ccc2-n2nc(C(F)(F)F)cc2C)o1` [Example 328, 4-(2,2-difluorobenzo[d][1,3]dioxol-5-yl)-2-methyl-5-(4-(5-methyl-3-(trifluoromethyl)-1H-pyrazol-1-yl)-3′-(methylsulfonyl)biphenyl-3-yl)oxazole] were, in that order, 24 nM and 112%.
Consider `Cc1nc(-c2ccc3c(c2)OC(F)(F)O3)c(-c2cc(-c3cc(F)c(CO)c(S(C)(=O)=O)c3)ccc2-c2cc(C(F)(F)C(=O)N3CCCC3)nn2C)o1` [Example 83, 2-(5-(3-(4-(2,2-difluorobenzo[d][1,3]dioxol-5-yl)-2-methyloxazol-5-yl)-3′-fluoro-4′-(hydroxymethyl)-5′-(methylsulfonyl)-[1,1′-biphenyl]-4-yl)-1-methyl-1H-pyrazol-3-yl)-2,2-difluoro-1-(pyrrolidin-1-yl)ethanone], for which the EC50 was found to be 497 nM. The Emax under setting [1] was determined as 62%.
For `Cc1nc(-c2ccc3c(c2)OC(F)(F)O3)c(-c2cc(-c3ccc(CO)c(S(C)(=O)=O)c3)ccc2-n2nc(C(F)(F)F)cc2C)o1` [Example 330, (3′-(4-(2,2-difluorobenzo[d][1,3]dioxol-5-yl)-2-methyloxazol-5-yl)-4′-(5-methyl-3-(trifluoromethyl)-1H-pyrazol-1-yl)-3-(methylsulfonyl)biphenyl-4-yl)methanol], the EC50 came out at 5 nM. Besides, under setting [1], the Emax amounted to 64%.
Consider `Cc1nc(-c2ccc(OC(F)(F)F)cc2)c(-c2cc(-c3cc(F)c(CO)c(S(C)(=O)=O)c3)ccc2-n2ccc(CC#N)n2)o1` [Example 370], for which the EC50 was 125 nM. The Emax under setting [1] amounted to 86%.
